Test results as given in patent publication US8758816B2, “Compositions comprising azelastine and methods of use thereof” (priority 2004, dated 2014).
Structures can show the parent of a compound that is named as a salt.

System: patients with seasonal allergic rhinitis (SAR)
Experiment: MP 428 two-week randomized double-blind study: Total Nasal Symptom Score (TNSS), change from baseline
Format: in vivo, human
Design: key to Change from Baseline in AM TNSS, Mean / Change from Baseline in AM TNSS, LS Mean / Change from Baseline in AM TNSS, Median: TNSS sum of 4 symptoms each 0-3 (0=none, 3=severe); change from baseline
Procedure: A two-week, randomized, double-blind study, which evaluated the effects of the co-administration of ASTELIN® (azelastine hydrochloride (HCl)) and FLONASE® (fluticasone propionate) compared to either product alone in patients with seasonal allergic rhinitis (SAR) was conducted during the 2006 Texas mountain cedar season. After a 5-day placebo lead-in period, 151 patients with moderate-to-severe allergic rhinitis symptoms were randomized to either: (1) (49 total patients) ASTELIN® (azelastine hydrochloride (HCl)) plus placebo saline nasal spray 2 sprays per nostril, 15 minutes apart, twice daily (AM & PM); (2) (50 total patients) FLONASE® (fluticasone propionate) plus placebo saline nasal spray, 2 sprays per nostril, 15 minutes apart, once daily (AM) and two sessions of placebo saline nasal spray, 2 sprays per nostril, 15 minutes apart (PM); or (3) (52 total patients) the co-administration of ASTELIN® (azelastine hydrochloride (HCl)) 2 sprays per nostril plus FLONASE® (fluticasone propionate) 2 sprays per nostril (AM), 15 minutes apart, and ASTELIN® (azelastine hydrochloride (HCl)) 2 sprays per nostril plus placebo saline nasal spray, 15 minutes apart, (PM) for a 2-week double-blind treatment period.
The primary efficacy variable was the change from baseline in the Total Nasal Symptom Score (TNSS), which comprised sneezing, itchy nose, runny nose, and nasal congestion (individual symptoms scores were assigned a value between 0 and 3, where 0=no symptoms and 3=severe symptoms). This study was not statistically designed to assess the differences between ASTELIN® and FLONASE®.

[1] = Day 2, Intent-to-Treat Population
[2] = Day 3, Intent-to-Treat Population
[3] = Day 4, Intent-to-Treat Population
[4] = Day 5, Intent-to-Treat Population

SMILES: CN1CCCC(n2nc(Cc3ccc(Cl)cc3)c3ccccc3c2=O)CC1 (racemic) [Azelastine, (±)-1-(2H)-phthalazinone, 4-[(4-chlorophenyl)methyl]-2-(hexahydro-1-methyl-1H-azepin-4-yl)-, mono-hydrochloride]
- Primary Reason for Discontinuation From Study: Treatment Failure (All Randomized Patients): 0 (0.0) N (%)
- Change from Baseline in AM TNSS, LS Mean [1]: −1.46
- Change from Baseline in AM TNSS, Mean [1]: −1.48
- Change from Baseline in AM TNSS, Median [1]: −1.25
- Change from Baseline in AM and PM Combined TNSS, Mean [1]: −3.23
- Change from Baseline in AM and PM Combined TNSS, Median [1]: −2.67
- Change from Baseline in PM TNSS, LS Mean [1]: −1.65
- Change from Baseline in PM TNSS, Mean [1]: −1.76
- Change from Baseline in PM TNSS, Median [1]: −1.00
- Percent Change from Baseline in AM TNSS, LS Mean [1]: −15.45%
- Percent Change from Baseline in AM TNSS, Mean [1]: −15.79%
- Percent Change from Baseline in AM TNSS, Median [1]: −14.29%
- Percent Change from Baseline in AM and PM Combined TNSS, LS Mean [1]: −16.31%
- Percent Change from Baseline in AM and PM Combined TNSS, Mean [1]: −16.93%
- Percent Change from Baseline in AM and PM Combined TNSS, Median [1]: −12.31%
- Percent Change from Baseline in PM TNSS, LS Mean [1]: −17.15%
- Percent Change from Baseline in PM TNSS, Mean [1]: −17.76%
- Percent Change from Baseline in PM TNSS, Median [1]: −10.00%
- Change from Baseline in AM and PM Combined TNSS, LS Mean (Day 2, Intent-to-Treat Population, ANCOVA model): −3.10
- Change from Baseline in AM and PM Combined TNSS, LS Mean (Day 2, Per-Protocol Population): −3.08
- Change from Baseline in AM and PM Combined TNSS, Mean (Day 2, Per-Protocol Population): −3.23
- Change from Baseline in AM and PM Combined TNSS, Median (Day 2, Per-Protocol Population): −2.67
- Percent Change from Baseline in AM and PM Combined TNSS, LS Mean (Day 2, Per-Protocol Population): −16.25%
- Percent Change from Baseline in AM and PM Combined TNSS, Mean (Day 2, Per-Protocol Population): −16.93%
- Percent Change from Baseline in AM and PM Combined TNSS, Median (Day 2, Per-Protocol Population): −12.31%
- Change from Baseline in AM TNSS, LS Mean [2]: −1.28
- Change from Baseline in AM TNSS, Mean [2]: −1.29
- Change from Baseline in AM TNSS, Median [2]: −0.80
- Change from Baseline in AM and PM Combined TNSS, Mean [2]: −3.28
- Change from Baseline in AM and PM Combined TNSS, Median [2]: −1.67
- Change from Baseline in PM TNSS, LS Mean [2]: −1.91
- Change from Baseline in PM TNSS, Mean [2]: −1.98
- Change from Baseline in PM TNSS, Median [2]: −1.50
- Percent Change from Baseline in AM TNSS, LS Mean [2]: −13.37%
- Percent Change from Baseline in AM TNSS, Mean [2]: −13.75%
- Percent Change from Baseline in AM TNSS, Median [2]: −7.89%
- Percent Change from Baseline in AM and PM Combined TNSS, LS Mean [2]: −16.85%
- Percent Change from Baseline in AM and PM Combined TNSS, Mean [2]: −17.08%
- Percent Change from Baseline in AM and PM Combined TNSS, Median [2]: −8.11%
- Percent Change from Baseline in PM TNSS, LS Mean [2]: −19.66%
- Percent Change from Baseline in PM TNSS, Mean [2]: −20.01%
- Percent Change from Baseline in PM TNSS, Median [2]: −15.15%
- Change from Baseline in AM and PM Combined TNSS, LS Mean (Day 3, Intent-to-Treat Population, ANCOVA model): −3.21
- Change from Baseline in AM and PM Combined TNSS, LS Mean (Day 3, Per-Protocol Population): −3.19
- Change from Baseline in AM and PM Combined TNSS, Mean (Day 3, Per-Protocol Population): −3.28
- Change from Baseline in AM and PM Combined TNSS, Median (Day 3, Per-Protocol Population): −1.67
- Percent Change from Baseline in AM and PM Combined TNSS, LS Mean (Day 3, Per-Protocol Population): −16.85%
- Percent Change from Baseline in AM and PM Combined TNSS, Mean (Day 3, Per-Protocol Population): −17.08%
- Percent Change from Baseline in AM and PM Combined TNSS, Median (Day 3, Per-Protocol Population): −8.11%
- Change from Baseline in AM TNSS, LS Mean [3]: −1.79
- Change from Baseline in AM TNSS, Mean [3]: −1.76
- Change from Baseline in AM TNSS, Median [3]: −1.33
- Change from Baseline in AM and PM Combined TNSS, Mean [3]: −3.93
- Change from Baseline in AM and PM Combined TNSS, Median [3]: −2.92
- Change from Baseline in PM TNSS, LS Mean [3]: −2.09
- Change from Baseline in PM TNSS, Mean [3]: −2.17
- Change from Baseline in PM TNSS, Median [3]: −2.20
- Percent Change from Baseline in AM TNSS, LS Mean [3]: −18.88%
- Percent Change from Baseline in AM TNSS, Mean [3]: −18.84%
- Percent Change from Baseline in AM TNSS, Median [3]: −14.89%
- Percent Change from Baseline in AM and PM Combined TNSS, LS Mean [3]: −20.41%
- Percent Change from Baseline in AM and PM Combined TNSS, Mean [3]: −20.50%
- Percent Change from Baseline in AM and PM Combined TNSS, Median [3]: −14.29%
- Percent Change from Baseline in PM TNSS, LS Mean [3]: −21.42%
- Percent Change from Baseline in PM TNSS, Mean [3]: −21.99%
- Percent Change from Baseline in PM TNSS, Median [3]: −23.08%
- Change from Baseline in AM and PM Combined TNSS, LS Mean (Day 4, Intent-to-Treat Population, ANCOVA model): −3.89
- Change from Baseline in AM and PM Combined TNSS, LS Mean (Day 4, Per-Protocol Population): −3.87
- Change from Baseline in AM and PM Combined TNSS, Mean (Day 4, Per-Protocol Population): −3.93
- Change from Baseline in AM and PM Combined TNSS, Median (Day 4, Per-Protocol Population): −2.92
- Percent Change from Baseline in AM and PM Combined TNSS, LS Mean (Day 4, Per-Protocol Population): −20.39%
- Percent Change from Baseline in AM and PM Combined TNSS, Mean (Day 4, Per-Protocol Population): −20.50%
- Percent Change from Baseline in AM and PM Combined TNSS, Median (Day 4, Per-Protocol Population): −14.29%
- Change from Baseline in AM TNSS, LS Mean [4]: −2.25
- Change from Baseline in AM TNSS, Mean [4]: −2.23
- Change from Baseline in AM TNSS, Median [4]: −1.67
- Change from Baseline in AM and PM Combined TNSS, Mean [4]: −4.48
- Change from Baseline in AM and PM Combined TNSS, Median [4]: −3.67
- Change from Baseline in PM TNSS, LS Mean [4]: −2.19
- Change from Baseline in PM TNSS, Mean [4]: −2.25
- Change from Baseline in PM TNSS, Median [4]: −1.20
- Percent Change from Baseline in AM TNSS, LS Mean [4]: −23.57%
- Percent Change from Baseline in AM TNSS, Mean [4]: −23.62%
- Percent Change from Baseline in AM TNSS, Median [4]: −15.79%
- Percent Change from Baseline in AM and PM Combined TNSS, LS Mean [4]: −23.20%
